# From patent publication US4963581A, “Naphthopyran derivatives and use thereof” (Takeda Chemical Industries, Ltd., priority 1988, dated 1990)
# What was measured:
# estrogen synthesis = assay: Estrogen synthesis inhibition in rats (PMSG-stimulated); type: in vivo, young SD rats; details: Test I, 4 days, Mean ± SD; for Plasma estradiol-17β level: PMSG control 568.6 ± 69.7
# Description: Groups of five young SD rats ([…], 19 days old) were used. Test groups were administered subcutaneously with the test compounds suspended in 0.2% gum arabic-containing physiological saline in a dose of 25 mg/kg or 50 mg/kg at 24-hour intervals for consecutive 4 days. Non-test groups (control groups […]) were administered with 0.2 ml of 0.2% gum arabic-containing physiological saline. On the third day after initiation of the test, a single dose of pregnant mare serum gonadotropin (PMSG) was administered subcutaneously in a dose of 10 U/rat to the test groups and to the control group 2, following the administration of the test compounds. […] The plasma samples thus obtained were subjected to plasma estradiol-17B level determination by radioimmunoassay. The uterus and ovaries were excised from each rat and, after removal of superfluous connective tissues, weighed. The results thus obtained are shown in Table 2.4-Hydroxyandrostenedione (4-OHA) was used as a reference compound for the pharmacological effect evaluation.
# *P < 0.05, **P < 0.02, ***P < 0.01, ****<0.001 against PMSG group
# [1] = target: T1, Human placental aromatase (Homo sapiens, UniProt P11511); assay: In vitro human placental aromatase inhibiting activity; type: biochemical; details: substrate androstenedione 4 μM, 37° C., 1 hour
# T1 construct: the pellet thus obtained was used as a microsome fraction; from tissue; host or cells: human placenta, microsome fraction
# T1 sequence (P11511 1-503): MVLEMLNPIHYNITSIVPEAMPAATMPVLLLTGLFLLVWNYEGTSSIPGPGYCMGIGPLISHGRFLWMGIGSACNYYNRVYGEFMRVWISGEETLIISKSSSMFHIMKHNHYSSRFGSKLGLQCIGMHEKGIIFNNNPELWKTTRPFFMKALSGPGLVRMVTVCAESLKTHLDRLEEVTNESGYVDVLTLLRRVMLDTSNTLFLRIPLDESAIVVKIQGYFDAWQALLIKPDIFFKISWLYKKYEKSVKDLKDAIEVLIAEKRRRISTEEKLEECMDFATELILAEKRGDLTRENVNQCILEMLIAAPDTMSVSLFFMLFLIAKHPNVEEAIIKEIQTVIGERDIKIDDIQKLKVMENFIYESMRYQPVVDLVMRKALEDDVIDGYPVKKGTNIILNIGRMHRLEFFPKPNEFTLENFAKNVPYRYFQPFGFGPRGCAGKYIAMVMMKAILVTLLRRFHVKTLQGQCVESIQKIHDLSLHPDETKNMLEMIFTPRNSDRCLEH
# Description: Preparation of human placental microsome:
# The method of F. A. Thompson et al. [Journal of Biological Chemistry, 249, 5364 (1974)]was partly modified. Thus, a placenta was washed with cooled 0.15 M KCl and, after removal of adhering membranes and great blood vessels, minced to sufficiently small pieces by means of scissors. To the minced tissue was added cold 0.02 M phosphate buffer (pH 7.4) containing 0.25 M sucrose in an amount of 1 ml per 1 g of tissue, the mixture was homogenized with a Polytron homogenizer (30 seconds, three times, in ice) and then centrifuged at 800×g for 10 minutes, the supernatant was subjected to centrifugation at 20,000×g for 30 minutes, followed by further centrifugation at 148,000×g for 45 minutes, and the pellet thus obtained was used as a microsome fraction. The microsome obtained was suspended in the same phosphate buffer as mentioned above in a concentration corresponding to 10 g of wet placenta per ml. The suspension was stored at -80° C. and, just prior to use, diluted 5 to 6 times.
# Aromatase activity measurement and inhibitory activity:
# The method of F. A. Thompson et al. (vide supra) was partly modified as follows:
# A reaction solution ([…]) containing 4 μM 4-androstene-3,17-dione, 140,000 dpm, 1,2[^3 H]-androstenedione, 550 μM NADPH, 20 μl of the above microsome and 5 μl of buffer or 5 μl of an inhibitor-containing solution was incubated at 37° C. for 1 hour. In this measurement system, aromatization of androstenedione gives [^3 H]--H2 O. Therefore, this reaction mixture was extracted with 0.5 ml of chloroform for separation, the aqueous layer obtained was treated with 0.25 ml of 5% active carbon for removal of free steriods and then subjected to low speed centrifugation. A scintillator (3 ml) was added to 0.2 ml of the supernatant, and the radioactivity was measured by means of a liquid scintillation counter. The percent inhibition (%) was determined by comparing the result thus obtained with the result for a control sample as obtained without adding any inhibitor. The activity was expressed in terms of IC50 (μg/ml), namely the inhibitor concentration required for 50% inhibition of the enzyme activity at the substrate (androstenedione) concentration of 4 μM.
SMILES,IC50 [1],other results
COc1cc2cc3c(c(O)c2c(O)c1C1=C(N)C(=O)c2cc4c(c(O)c2C1=O)C(=O)OC(C)C4)C(=O)OC(C)C3 (centres unmarked) [Compound 7],50.4 µM,"Tissue weight, Ovaries (estrogen synthesis; 25 mg/kg/day s.c.): 31.2 ± 8.5 mg; Tissue weight, Uterus (estrogen synthesis; 25 mg/kg/day s.c.): 94.1 ± 5.5 mg; Plasma estradiol-17β level (estrogen synthesis; 25 mg/kg/day s.c.): 323.4 ± 161.2 pg/mL; Tissue weight, Ovaries (estrogen synthesis; 50 mg/kg/day s.c.): 27.7 ± 2.7 mg; Tissue weight, Uterus (estrogen synthesis; 50 mg/kg/day s.c.): 110.0 ± 14.9 mg; Plasma estradiol-17β level (estrogen synthesis; 50 mg/kg/day s.c.): 206.3 ± 54.8 pg/mL"
CCOC1=C(C2=C(OC)C(=O)c3cc4c(c(O)c3C2=O)C(=O)OC(C)C4)C(=O)c2c(cc3c(c2O)C(=O)OC(C)C3)C1=O (centres unmarked) [Compound 8],28.7 µM,–
CCOC1=C(C2=C(OCC)C(=O)c3cc4c(c(O)c3C2=O)C(=O)OC(C)C4)C(=O)c2c(cc3c(c2O)C(=O)OC(C)C3)C1=O (centres unmarked) [Compound 9],40.7 µM,–
CCOC1=C(C2=C(O)C(=O)c3cc4c(c(O)c3C2=O)C(=O)OC(C)C4)C(=O)c2c(cc3c(c2O)C(=O)OC(C)C3)C1=O (centres unmarked) [Compound 10],51.2 µM,–
CNC1=C(C2=C(NC)C(=O)c3cc4c(c(O)c3C2=O)C(=O)OC(C)C4)C(=O)c2c(cc3c(c2O)C(=O)OC(C)C3)C1=O (centres unmarked) [Compound 11],437 µM,–
CNC1=C(C2=C(NC)C(=O)c3cc4c(c(O)c3C2=O)C(=O)OC(C)C4)C(=O)c2c(cc3c(c2O)C(=O)OC(C)C3)C1=O (centres unmarked) [Compound 12],10.5 µM,–
COC1=C(C2=C(OC)C(=O)c3cc4c(c(OC)c3C2=O)C(=O)OC(C)C4)C(=O)c2c(cc3c(c2OC)C(=O)OC(C)C3)C1=O (centres unmarked) [Compound 13],16.9 µM,–
COC1=CC(=O)c2c(cc3c(c2O)C(=O)OC(C)C3)C1=O (centres unmarked) [Compound 14],2.78 µM,–
